Results taken from patent US20140057887A1, “NOVEL PLATINUM-CARBENE COMPLEXES AND USE THEREOF AS MEDICAMENTS” (priority 2010, published 2014).
Entries after “also recorded” stand apart in the source; their conditions may differ.

Assays:
HCT116 [1] = assay: Cytotoxicity in vitro, IC50 on HCT116; format: cell-based, human
Description: (§1) (5% CO2). […] All the treatments are carried out in triplicate.
(§2) The cytotoxicity of a compound against a cancer cell line is evaluated.

HCT116 [2] = assay: Percentage of cellular inhibition at 10 μM, HCT116; format: cell-based, human; details: final concentration 10 μM; colon carcinoma
Description: as §1

MRC5 = assay: Percentage of cellular inhibition at 10 μM, MRC5; format: cell-based, human; details: for Inhibition (in %) {MRC5}: final concentration 10 μM, human fetal lung cells (non-cancerous)
Description: as §1
MRCS: human fetal lung cells

EPC [3] = assay: Percentage of cellular inhibition at 10 μM, EPC; details: for Inhibition (in %) {EPC}: final concentration 10 μM, endothelial progenitor cells
Description: as §1
(§3) The endothelial progenitor cells (EPC) play an important role in angiogenesis and vasculogenesis; these last-mentioned contribute to tumour growth, are mobilized by cytokines secreted at cancer sites and contribute to postnatal vasculogenesis and to pathological neovascularization.
(§4) EPC: endothelial progenitor cells

EPC [4] = assay: Cytotoxicity in vitro, IC50 on EPC (endothelial progenitor cells); format: cell-based
Description: as §1, §4, §3, §2

U87 = assay: MTS cytotoxicity assay, IC50 on U87 cell line; details: for IC50: read-out: IC50 {U87} (in μM), MTS assay, 48 h incubation
Description: (§7) MTS [3-(4,5-dimethylthiazol-2-yl)-5-(3-carboxymethoxyphenyl)-2-(4-sulphophenyl)-2H-tetrazolium] is reduced to formazan (coloured compound, the optical density of which is measured at 492 nm) by the mitochondrial dehydrogenases. Only the live cells will reduce MTS to formazan, which will be released in the medium. The optical density measured at 492 nm is directly proportional to the number of live cells.
(§8) MTS [3-(4,5-dimethylthiazol-2-yl)-5-(3-carboxymethoxyphenyl)-2-(4-sulphophenyl)-2H-tetrazolium], soluble in the culture medium, can be reduced to formazan (coloured product) by the mitochondrial dehydrogenases of the live cells. The measured optical density (492 nm) is therefore directly proportional to the quantity of live cells. The cells are deposited in a 96-well plate at 1.10^4 cells per well in 100 μL of RPMI 5% FCS. The cells are then treated with the various molecules at the desired concentrations and then incubated for 48 h at 37° C. (5% CO2). After treatment, 20 μL of MTS is added to each well. After incubation for two hours at 37° C. the optical density is measured at an absorbance of 492 nm using the plate reader Wallac Victor 2 Multi-label Counter (Technical University of Denmark, Kongens Lyngby, Denmark). All the treatments are carried out in triplicate. The blank, determined by incubating RPMI with MTS, is deducted from the values of the wells containing cells. The percentage of live cells is calculated from the following formula: (OD experiment*100)/OD control.
(§9) The cytotoxicity of the compounds according to the invention is measured in vitro on the Hela and U87 cell lines.
U87: stage IV glioblastoma, expresses αVβ5 and can be used as a xenograft
(§10) The cytotoxicity of a compound with respect to a cancer cell line is evaluated from the value of the inhibitory concentration IC50 of said compound with respect to said cell line.
(§11) The MTS assay gives an optical density signal that is proportional to the quantity of live cells (in a linear range). These values, as well as the untreated controls, are used for calculating the percentage of live cells at each concentration. […] The IC50 values are calculated on the basis of 4-parameter fitting using the Sigma Plot software.

MCF7 [5] = assay: Cytotoxicity in vitro, IC50 on MCF7; format: cell-based; details: breast carcinoma
Description: as §1, §2

SK-OV3 [6] = assay: Percentage of cellular inhibition at 10 μM, SK-OV3; format: cell-based; details: for Inhibition (in %) {SK-OV3}: final concentration 10 μM, ovarian adenocarcinoma
Description: as §1
(§5) SK-OV-3 and OVCAR8: ovarian adenocarcinomas

PC3 [7] = assay: Cytotoxicity in vitro, IC50 on PC3; format: cell-based
Description: as §1
(§6) PC3: prostatic adenocarcinoma
as §2

OVCAR8 [8] = assay: Cytotoxicity in vitro, IC50 on OVCAR8; format: cell-based; details: ovarian adenocarcinoma
Description: as §1, §5, §2

PC3 [9] = assay: Percentage of cellular inhibition at 10 μM, PC3; format: cell-based; details: final concentration 10 μM; prostatic adenocarcinoma
Description: as §1, §6

OVCAR8 [10] = assay: Percentage of cellular inhibition at 10 μM, OVCAR8; format: cell-based; details: for Inhibition (in %) {OVCAR8}: final concentration 10 μM, ovarian adenocarcinoma
Description: as §1, §5

KB = assay: Percentage of cellular inhibition at 10 μM, KB; format: cell-based; details: final concentration 10 μM; buccal carcinoma
Description: as §1

HL60 = assay: Percentage of cellular inhibition at 10 μM, HL60; format: cell-based; details: final concentration 10 μM; leukaemia
Description: as §1

Vero = assay: Percentage of cellular inhibition at 10 μM, Vero; format: cell-based, monkey; details: for Inhibition (in %) {Vero}: final concentration 10 μM, monkey kidney epithelial cells (non-cancerous); for cytotoxicity on non-cancerous cells Vero (in words): 10 μM
Description: as §1
Vero: monkey kidney epithelial cells

Hela = assay: MTS cytotoxicity assay, IC50 on Hela cell line; details: for IC50: read-out: IC50 {Hela} (in μM), MTS assay, 48 h incubation
Description: as §7, §8, §9, §10, §11

SK-OV3 [11] = assay: Cytotoxicity in vitro, IC50 on SK-OV3; format: cell-based; details: ovarian adenocarcinoma
Description: as §1, §5, §2

MCF7 [12] = assay: Percentage of cellular inhibition at 10 μM, MCF7; format: cell-based; details: final concentration 10 μM; breast carcinoma
Description: as §1

[13] = system: cell lines KB, SK-OV3, OVCAR-8, HL60, MCF7, HCT116, PC3, MRCS, Vero and EPC; assay: Cellular inhibition, overall statements on the panel of cell lines; format: cell-based; details: 10 μM, panel of cancer and non-cancerous cell lines
From the text: The results obtained are presented below.

integrin αvβ3 = integrin αvβ3 (Homo sapiens, UniProt P05106+P06756); details: background statement; cited from earlier work
[14] = Measurement of water-solubility; format: physicochemical
[15] = measured by first dissolving cisplatin in water

integrin αvβ3, sequence (P06756 31-889 limits assumed): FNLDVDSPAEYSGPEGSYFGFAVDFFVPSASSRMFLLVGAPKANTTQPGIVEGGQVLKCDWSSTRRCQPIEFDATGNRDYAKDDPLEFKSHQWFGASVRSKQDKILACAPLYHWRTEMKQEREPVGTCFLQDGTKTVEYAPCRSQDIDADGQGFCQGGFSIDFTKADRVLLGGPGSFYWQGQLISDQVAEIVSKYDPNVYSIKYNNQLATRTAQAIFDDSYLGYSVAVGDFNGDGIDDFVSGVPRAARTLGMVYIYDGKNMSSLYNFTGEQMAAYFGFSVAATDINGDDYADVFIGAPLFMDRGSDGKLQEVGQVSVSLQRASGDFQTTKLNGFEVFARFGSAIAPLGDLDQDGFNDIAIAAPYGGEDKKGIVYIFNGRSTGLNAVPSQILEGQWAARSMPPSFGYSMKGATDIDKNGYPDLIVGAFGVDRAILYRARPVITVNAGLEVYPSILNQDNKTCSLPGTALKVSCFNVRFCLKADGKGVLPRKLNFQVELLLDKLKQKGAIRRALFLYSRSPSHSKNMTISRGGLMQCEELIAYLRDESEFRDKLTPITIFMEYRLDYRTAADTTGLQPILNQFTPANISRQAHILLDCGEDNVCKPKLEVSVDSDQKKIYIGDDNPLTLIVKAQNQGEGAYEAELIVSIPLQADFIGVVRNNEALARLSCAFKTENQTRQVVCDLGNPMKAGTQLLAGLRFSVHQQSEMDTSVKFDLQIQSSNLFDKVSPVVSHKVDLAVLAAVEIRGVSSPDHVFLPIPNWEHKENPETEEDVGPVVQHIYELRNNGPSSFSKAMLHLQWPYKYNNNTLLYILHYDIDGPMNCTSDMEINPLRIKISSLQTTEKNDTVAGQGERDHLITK
integrin αvβ3, sequence (P06756 891-1048 partner limits assumed): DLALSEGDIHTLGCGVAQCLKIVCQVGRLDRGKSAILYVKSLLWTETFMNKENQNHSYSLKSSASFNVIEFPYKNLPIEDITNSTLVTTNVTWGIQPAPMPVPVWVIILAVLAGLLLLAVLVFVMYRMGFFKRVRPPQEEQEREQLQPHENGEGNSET
integrin αvβ3, sequence (P05106 27-788): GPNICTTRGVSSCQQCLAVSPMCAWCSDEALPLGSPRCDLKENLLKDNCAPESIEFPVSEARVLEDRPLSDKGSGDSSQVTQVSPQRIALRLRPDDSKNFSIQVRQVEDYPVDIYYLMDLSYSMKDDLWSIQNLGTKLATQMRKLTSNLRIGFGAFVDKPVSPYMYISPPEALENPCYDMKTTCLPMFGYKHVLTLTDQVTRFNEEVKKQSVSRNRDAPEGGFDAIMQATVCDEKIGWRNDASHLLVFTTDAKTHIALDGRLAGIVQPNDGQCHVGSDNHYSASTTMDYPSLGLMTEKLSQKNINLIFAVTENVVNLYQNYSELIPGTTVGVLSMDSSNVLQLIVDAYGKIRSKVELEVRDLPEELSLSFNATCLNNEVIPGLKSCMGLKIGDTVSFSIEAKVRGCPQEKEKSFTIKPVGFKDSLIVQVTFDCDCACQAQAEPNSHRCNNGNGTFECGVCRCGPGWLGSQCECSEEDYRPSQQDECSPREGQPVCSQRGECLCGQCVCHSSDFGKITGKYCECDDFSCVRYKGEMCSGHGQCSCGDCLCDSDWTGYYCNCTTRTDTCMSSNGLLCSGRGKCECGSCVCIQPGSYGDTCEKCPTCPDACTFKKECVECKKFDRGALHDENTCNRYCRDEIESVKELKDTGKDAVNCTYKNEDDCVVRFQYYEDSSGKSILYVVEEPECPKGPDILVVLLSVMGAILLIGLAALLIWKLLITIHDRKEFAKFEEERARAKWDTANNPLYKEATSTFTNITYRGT

## N.N.[Cl][Pt][Cl] [Cisplatin, cisplatin, reference compound]
HCT116 [1]; [15]
  IC50: 5.5 µM
HCT116 [2]
  Inhibition (in %) {HCT116}: 2.7%
MRC5
  Inhibition (in %) {MRC5}: −20.4%
EPC [3]
  Inhibition (in %) {EPC}: −1.2%
EPC [4]
  IC50: > 10 µM
U87
  IC50: 8 µM
MCF7 [5]
  IC50: > 10 µM
SK-OV3 [6]
  Inhibition (in %) {SK-OV3}: 4.4%
PC3 [7]; [15]
  IC50: 5.1 µM
OVCAR8 [8]
  IC50: > 10 µM
PC3 [9]
  Inhibition (in %) {PC3}: −6.2%
OVCAR8 [10]
  Inhibition (in %) {OVCAR8}: −1.8%
KB
  Inhibition (in %) {KB}: 3.6%
HL60
  Inhibition (in %) {HL60}: −10.6%
Vero
  Inhibition (in %) {Vero}: −4.0%
Hela
  IC50: 26.2 µM
SK-OV3 [11]
  IC50: > 10 µM
MCF7 [12]
  Inhibition (in %) {MCF7}: −4.1%

## COCCOCCOCCOCCn1ccn(CCOCCOCCOCCOC)[c]1=[Pt]([I])[I].NC1CCCCC1 [Example 14, trans-diiodo(N-cyclohexylamine)[1,3-di(2,5,8,11-tetraoxatridecan-13-yl)-imidazol-2-ylidene]platinum(II)]
[13]
  inhibition of cell growth, overall statement on the cell panel (in words): selective inhibitor of the growth of cancer cells
HCT116 [2]
  Inhibition (in %) {HCT116}: 31.9%
MRC5; 10 μM
  cytotoxicity on non-cancerous cells MRCS (in words): low cytotoxicity
MRC5
  Inhibition (in %) {MRC5}: 24.5%
EPC [3]; 10 μM
  cytotoxicity on non-cancerous cells EPC (in words): low cytotoxicity
EPC [3]
  Inhibition (in %) {EPC}: 27.2%
SK-OV3 [6]; 10 μM
  selectivity of inhibition of cell growth, SKOV-3 (in words): selective with respect to the ovarian cancer cells SKOV-3 and OVCAR8
SK-OV3 [6]
  Inhibition (in %) {SK-OV3}: 62.8%
OVCAR8 [8]
  IC50: 3.9 µM
PC3 [9]
  Inhibition (in %) {PC3}: 5.7%
OVCAR8 [10]; 10 μM
  selectivity of inhibition of cell growth, OVCAR8 (in words): selective with respect to the ovarian cancer cells SKOV-3 and OVCAR8
OVCAR8 [10]
  Inhibition (in %) {OVCAR8}: 78.4%
KB
  Inhibition (in %) {KB}: 26.6%
HL60
  Inhibition (in %) {HL60}: 31.2%
Vero
  cytotoxicity on non-cancerous cells Vero (in words): low cytotoxicity
  Inhibition (in %) {Vero}: 17.0%
SK-OV3 [11]
  IC50: 6.2 µM
MCF7 [12]
  Inhibition (in %) {MCF7}: 18.6%

## cyclo(RGDfK) [cyclo(RGDfK) peptide]
Integrin αvβ3
  affinity for integrin αvβ3 (in words): high affinity

## trans-diiodo(N-poly(ethylenamine))[1-methyl-3-benzyl-imidazol-2-ylidene]platinum(II) [Example 34]
HCT116 [1]; colon carcinoma
  IC50: 1 µM
[14]
  Water-solubility: 6.7 g/L
[13]
  inhibition of cell growth, overall statement on the cell panel (in words): inhibitor of the growth of cancer cells and an anti-angiogenic agent; also recorded: cytotoxic activity on all of the cancer cells tested
HCT116 [2]
  Inhibition (in %) {HCT116}: 90.1%
MRC5
  Inhibition (in %) {MRC5}: 26.4%
EPC [3]; 10 μM
  anti-angiogenic activity by inhibition of growth of EPC cells (in words): anti-angiogenic activity
EPC [3]
  Inhibition (in %) {EPC}: 95.8%
U87; comparison with cisplatin
  cytotoxic activity compared with cisplatin, U87 cell line (in words): almost identical to that of cisplatin
U87
  IC50: 8.3 µM
MCF7 [5]
  IC50: 1.7 µM
SK-OV3 [6]
  Inhibition (in %) {SK-OV3}: 99.1%
PC3 [7]; prostatic adenocarcinoma
  IC50: 2.8 µM
PC3 [9]
  Inhibition (in %) {PC3}: 64.2%
OVCAR8 [10]
  Inhibition (in %) {OVCAR8}: 79.1%
KB
  Inhibition (in %) {KB}: 64.0%
HL60
  Inhibition (in %) {HL60}: 97.0%
Vero
  cytotoxicity on non-cancerous cells Vero (in words): low cytotoxicity
  Inhibition (in %) {Vero}: 19.5%
Hela; comparison with cisplatin
  cytotoxic activity compared with cisplatin, HeLa cell line (in words): almost identical to that of cisplatin
Hela
  IC50: 28.4 µM
SK-OV3 [11]
  IC50: 1.2 µM
MCF7 [12]
  Inhibition (in %) {MCF7}: 98.2%
